{"source": "paper PMC5428509", "about": "“Irreversible inhibition of BTK kinase by a novel highly selective inhibitor CHMFL-BTK-11 suppresses inflammatory response in rheumatoid arthritis model” (Scientific Reports, 2017)", "assay_in_all_cases": "biochemical", "design_in_all_cases": "KinomeScan competition binding panel (DiscoveRx), percent of control at 1 uM", "settings_in_all_cases": "read-out: Percent Control", "key": {"AAK1": {"biological_target": "AAK1 (Homo sapiens, UniProt Q2M2I8)", "in_short": "(§1)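 KinomeScan technology used to profile binding across a panel of 456 kinases and mutants.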"}, "STK36": {"biological_target": "STK36 (Homo sapiens, UniProt Q9NRP7)", "in_short": "as §1"}, "BMX": {"biological_target": "BMX (Homo sapiens, UniProt P51813)", "in_short": "as §1"}, "BRAF": {"biological_target": "BRAF (Homo sapiens, UniProt P15056)", "in_short": "as §1"}, "NIK": {"biological_target": "T1, NIK (Homo sapiens, UniProt Q99558)", "T1 construct": "gene MAP3K14", "in_short": "as §1"}, "IGF1R": {"biological_target": "IGF1R (Homo sapiens, UniProt P08069)", "in_short": "as §1"}, "SIK": {"biological_target": "T2, SIK (Homo sapiens, UniProt P57059)", "T2 construct": "gene SIK1", "in_short": "as §1"}, "INSRR": {"biological_target": "INSRR (Homo sapiens, UniProt P14616)", "in_short": "as §1"}, "ACVR1B": {"biological_target": "ACVR1B (Homo sapiens, UniProt P36896)", "sequence (P36896 whole entry)": "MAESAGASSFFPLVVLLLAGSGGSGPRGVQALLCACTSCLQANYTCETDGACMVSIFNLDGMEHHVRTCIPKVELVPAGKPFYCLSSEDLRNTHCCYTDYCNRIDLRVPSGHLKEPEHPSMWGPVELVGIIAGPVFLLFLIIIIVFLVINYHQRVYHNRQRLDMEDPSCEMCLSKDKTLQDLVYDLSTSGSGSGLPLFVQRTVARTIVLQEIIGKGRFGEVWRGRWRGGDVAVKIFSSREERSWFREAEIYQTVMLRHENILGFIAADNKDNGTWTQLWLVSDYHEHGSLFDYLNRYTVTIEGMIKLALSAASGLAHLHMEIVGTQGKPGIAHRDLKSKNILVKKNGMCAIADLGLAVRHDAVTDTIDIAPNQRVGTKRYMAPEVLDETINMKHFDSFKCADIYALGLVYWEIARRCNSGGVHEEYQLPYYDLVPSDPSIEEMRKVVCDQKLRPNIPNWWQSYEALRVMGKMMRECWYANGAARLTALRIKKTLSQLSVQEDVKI", "in_short": "as §1"}, "BUB1": {"biological_target": "BUB1 (Homo sapiens, UniProt O43683)", "in_short": "as §1"}, "PLK3": {"biological_target": "PLK3 (Homo sapiens, UniProt Q9H4B4)", "sequence (Q9H4B4 whole entry)": "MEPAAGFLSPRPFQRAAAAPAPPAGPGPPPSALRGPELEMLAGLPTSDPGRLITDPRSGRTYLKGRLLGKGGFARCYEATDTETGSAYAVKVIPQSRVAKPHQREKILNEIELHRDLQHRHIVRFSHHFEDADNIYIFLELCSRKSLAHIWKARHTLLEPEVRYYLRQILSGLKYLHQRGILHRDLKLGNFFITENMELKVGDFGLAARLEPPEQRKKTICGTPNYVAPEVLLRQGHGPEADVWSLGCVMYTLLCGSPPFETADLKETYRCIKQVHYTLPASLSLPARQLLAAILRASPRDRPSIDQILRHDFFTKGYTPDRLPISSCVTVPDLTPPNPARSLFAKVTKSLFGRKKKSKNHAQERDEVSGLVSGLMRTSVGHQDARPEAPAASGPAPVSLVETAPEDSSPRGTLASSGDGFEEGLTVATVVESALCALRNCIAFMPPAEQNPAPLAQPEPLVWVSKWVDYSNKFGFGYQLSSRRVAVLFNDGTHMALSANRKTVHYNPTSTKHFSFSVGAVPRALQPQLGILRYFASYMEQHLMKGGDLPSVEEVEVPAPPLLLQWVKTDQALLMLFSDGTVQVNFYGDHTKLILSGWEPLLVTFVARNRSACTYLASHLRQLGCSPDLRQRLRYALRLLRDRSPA", "in_short": "as §1"}, "MLCK": {"biological_target": "T3, MLCK (Homo sapiens, UniProt Q32MK0)", "T3 construct": "gene MYLK3", "in_short": "as §1"}, "CAMK1G": {"biological_target": "CAMK1G (Homo sapiens, UniProt Q96NX5)", "in_short": "as §1"}, "NEK4": {"biological_target": "NEK4 (Homo sapiens, UniProt P51957)", "in_short": "as §1"}, "[1]": {"biological_target": "EGFR(L747-E749del, A750P) (Homo sapiens, UniProt P00533, A750P/DEL747-749)", "in_short": "as §1"}, "CHEK1": {"biological_target": "CHEK1 (Homo sapiens, UniProt O14757)", "in_short": "as §1"}, "MAPKAPK2": {"biological_target": "MAPKAPK2 (Homo sapiens, UniProt P49137)", "sequence (P49137 whole entry)": "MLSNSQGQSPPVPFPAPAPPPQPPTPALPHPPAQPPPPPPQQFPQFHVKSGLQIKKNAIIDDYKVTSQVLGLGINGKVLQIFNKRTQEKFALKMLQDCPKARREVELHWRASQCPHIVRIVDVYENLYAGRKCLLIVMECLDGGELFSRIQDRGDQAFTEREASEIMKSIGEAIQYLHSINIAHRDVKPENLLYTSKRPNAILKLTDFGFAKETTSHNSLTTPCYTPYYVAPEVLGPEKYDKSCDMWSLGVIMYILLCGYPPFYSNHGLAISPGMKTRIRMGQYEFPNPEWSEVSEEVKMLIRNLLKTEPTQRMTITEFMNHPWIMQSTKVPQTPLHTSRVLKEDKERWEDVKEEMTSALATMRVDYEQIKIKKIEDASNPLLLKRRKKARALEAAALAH", "in_short": "as §1"}, "RIPK2": {"biological_target": "RIPK2 (Homo sapiens, UniProt O43353)", "in_short": "as §1"}, "PIK3CB": {"biological_target": "PIK3CB (Homo sapiens, UniProt P42338)", "in_short": "as §1"}, "[2]": {"biological_target": "T4, JAK1(JH1domain-catalytic) (Homo sapiens, UniProt P23458)", "T4 construct": "JH1domain-catalytic", "T4 sequence (P23458 whole entry)": "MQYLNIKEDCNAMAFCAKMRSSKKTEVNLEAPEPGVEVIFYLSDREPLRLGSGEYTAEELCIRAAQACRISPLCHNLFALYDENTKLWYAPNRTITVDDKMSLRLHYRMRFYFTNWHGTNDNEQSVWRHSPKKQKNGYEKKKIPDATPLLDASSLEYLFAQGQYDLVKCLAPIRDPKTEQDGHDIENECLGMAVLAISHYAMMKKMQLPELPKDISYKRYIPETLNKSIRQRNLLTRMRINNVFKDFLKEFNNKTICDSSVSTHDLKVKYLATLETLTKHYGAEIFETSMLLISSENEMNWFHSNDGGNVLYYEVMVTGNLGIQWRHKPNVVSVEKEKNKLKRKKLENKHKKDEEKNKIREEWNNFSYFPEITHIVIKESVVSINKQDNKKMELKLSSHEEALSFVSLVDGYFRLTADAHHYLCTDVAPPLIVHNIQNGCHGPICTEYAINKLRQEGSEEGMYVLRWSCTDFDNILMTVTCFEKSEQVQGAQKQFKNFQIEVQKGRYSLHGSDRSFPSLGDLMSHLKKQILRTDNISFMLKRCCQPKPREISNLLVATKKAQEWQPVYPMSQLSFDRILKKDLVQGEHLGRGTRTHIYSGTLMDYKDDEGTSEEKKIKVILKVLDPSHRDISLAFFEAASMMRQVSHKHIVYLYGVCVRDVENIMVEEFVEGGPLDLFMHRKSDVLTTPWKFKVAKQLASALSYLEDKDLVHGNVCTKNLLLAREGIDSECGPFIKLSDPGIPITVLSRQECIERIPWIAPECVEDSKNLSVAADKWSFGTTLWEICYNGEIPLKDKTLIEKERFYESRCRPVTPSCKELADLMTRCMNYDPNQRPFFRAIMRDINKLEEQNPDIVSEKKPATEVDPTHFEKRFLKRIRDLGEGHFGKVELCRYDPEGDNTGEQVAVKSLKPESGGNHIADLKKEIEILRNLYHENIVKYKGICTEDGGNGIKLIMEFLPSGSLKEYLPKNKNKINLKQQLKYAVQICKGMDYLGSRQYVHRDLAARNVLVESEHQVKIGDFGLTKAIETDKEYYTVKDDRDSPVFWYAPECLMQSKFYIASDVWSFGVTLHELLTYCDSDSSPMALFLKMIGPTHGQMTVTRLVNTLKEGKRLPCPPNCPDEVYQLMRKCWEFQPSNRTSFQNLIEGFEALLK", "in_short": "as §1"}, "EGFR(S752-I759del)": {"biological_target": "EGFR(S752-I759del) (Homo sapiens, UniProt P00533, DEL752-759)", "sequence (P00533 with tags, fused parts or gaps DEL752-759)": "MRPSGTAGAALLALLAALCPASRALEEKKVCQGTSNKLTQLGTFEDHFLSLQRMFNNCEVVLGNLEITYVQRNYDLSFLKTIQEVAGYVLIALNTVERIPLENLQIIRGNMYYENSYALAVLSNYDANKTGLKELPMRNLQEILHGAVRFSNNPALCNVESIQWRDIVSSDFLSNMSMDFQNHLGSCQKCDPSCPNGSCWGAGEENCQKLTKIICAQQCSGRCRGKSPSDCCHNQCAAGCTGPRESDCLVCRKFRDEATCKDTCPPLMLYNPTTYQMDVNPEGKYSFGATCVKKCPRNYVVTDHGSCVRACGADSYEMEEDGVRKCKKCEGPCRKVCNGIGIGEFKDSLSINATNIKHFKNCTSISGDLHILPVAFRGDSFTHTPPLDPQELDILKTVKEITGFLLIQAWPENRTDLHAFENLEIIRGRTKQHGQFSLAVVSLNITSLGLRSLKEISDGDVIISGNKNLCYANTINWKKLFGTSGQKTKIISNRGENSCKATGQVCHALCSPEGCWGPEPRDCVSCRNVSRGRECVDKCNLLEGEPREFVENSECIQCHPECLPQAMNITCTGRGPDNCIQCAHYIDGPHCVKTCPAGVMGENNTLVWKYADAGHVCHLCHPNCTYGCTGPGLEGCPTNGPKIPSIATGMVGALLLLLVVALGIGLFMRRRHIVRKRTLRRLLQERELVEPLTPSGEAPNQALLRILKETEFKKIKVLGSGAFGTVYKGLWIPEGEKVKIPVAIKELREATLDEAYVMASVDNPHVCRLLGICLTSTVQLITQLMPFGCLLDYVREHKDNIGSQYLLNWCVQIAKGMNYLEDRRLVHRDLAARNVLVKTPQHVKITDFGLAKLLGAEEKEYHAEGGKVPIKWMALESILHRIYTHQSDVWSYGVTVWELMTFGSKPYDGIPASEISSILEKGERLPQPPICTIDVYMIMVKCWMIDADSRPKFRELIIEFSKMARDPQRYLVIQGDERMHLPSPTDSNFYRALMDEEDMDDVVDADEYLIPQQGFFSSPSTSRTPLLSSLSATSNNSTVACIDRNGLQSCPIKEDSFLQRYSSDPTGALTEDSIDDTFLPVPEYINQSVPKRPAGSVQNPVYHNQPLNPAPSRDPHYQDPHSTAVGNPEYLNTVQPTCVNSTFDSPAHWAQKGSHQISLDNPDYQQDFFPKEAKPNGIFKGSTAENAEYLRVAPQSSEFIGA", "in_short": "as §1"}, "FGFR1": {"biological_target": "FGFR1 (Homo sapiens, UniProt P11362)", "in_short": "as §1"}, "HCK": {"biological_target": "HCK (Homo sapiens, UniProt P08631)", "sequence (P08631 whole entry)": "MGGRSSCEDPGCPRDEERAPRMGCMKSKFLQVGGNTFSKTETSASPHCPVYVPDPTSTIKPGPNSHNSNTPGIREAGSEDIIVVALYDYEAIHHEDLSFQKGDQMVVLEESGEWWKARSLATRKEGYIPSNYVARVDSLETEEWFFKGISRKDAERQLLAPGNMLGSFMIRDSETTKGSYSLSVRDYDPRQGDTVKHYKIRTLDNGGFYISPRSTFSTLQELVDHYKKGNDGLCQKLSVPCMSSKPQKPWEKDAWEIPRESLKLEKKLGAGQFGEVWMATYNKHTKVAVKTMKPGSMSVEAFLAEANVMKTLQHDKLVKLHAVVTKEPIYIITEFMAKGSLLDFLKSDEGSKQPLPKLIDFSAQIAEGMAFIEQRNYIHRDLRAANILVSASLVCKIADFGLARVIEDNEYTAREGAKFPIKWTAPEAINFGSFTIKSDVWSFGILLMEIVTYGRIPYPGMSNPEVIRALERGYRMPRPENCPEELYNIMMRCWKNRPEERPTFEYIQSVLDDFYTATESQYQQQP", "in_short": "as §1"}, "PIK3C2G": {"biological_target": "PIK3C2G (Homo sapiens, UniProt O75747)", "in_short": "as §1"}, "CSNK1E": {"biological_target": "CSNK1E (Homo sapiens, UniProt P49674)", "sequence (P49674 whole entry)": "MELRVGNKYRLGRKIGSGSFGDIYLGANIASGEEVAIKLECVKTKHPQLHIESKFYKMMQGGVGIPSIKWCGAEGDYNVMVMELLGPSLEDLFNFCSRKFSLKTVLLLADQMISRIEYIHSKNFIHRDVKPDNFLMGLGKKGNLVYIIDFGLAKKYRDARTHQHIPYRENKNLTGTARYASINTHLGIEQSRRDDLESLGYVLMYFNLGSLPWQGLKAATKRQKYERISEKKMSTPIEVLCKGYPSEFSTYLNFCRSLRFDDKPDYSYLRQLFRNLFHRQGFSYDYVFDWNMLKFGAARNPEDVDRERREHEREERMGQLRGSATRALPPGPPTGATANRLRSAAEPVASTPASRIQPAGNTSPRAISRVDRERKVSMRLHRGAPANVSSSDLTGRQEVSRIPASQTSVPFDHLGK", "in_short": "as §1"}}, "data": [{"compound": "C=CC(=O)Nc1cc(-n2c(=O)ccc3cnc4ccc(-n5cccn5)cc4c32)ccc1C", "note": "[CHMFL-BTK-11]", "values": [{"measurement": "remaining binding at 1 µM", "setting": "AAK1", "result": 62, "unit": "%"}, {"measurement": "remaining binding at 1 µM", "setting": "STK36", "result": 97, "unit": "%"}, {"measurement": "remaining binding at 1 µM", "setting": "BMX", "result": 23, "unit": "%"}, {"measurement": "remaining binding at 1 µM", "setting": "BRAF", "result": 93, "unit": "%"}, {"measurement": "remaining binding at 1 µM", "setting": "NIK", "result": 100, "unit": "%"}, {"measurement": "remaining binding at 1 µM", "setting": "IGF1R", "result": 100, "unit": "%"}, {"measurement": "remaining binding at 1 µM", "setting": "SIK", "result": 100, "unit": "%"}, {"measurement": "remaining binding at 1 µM", "setting": "INSRR", "result": 100, "unit": "%"}, {"measurement": "remaining binding at 1 µM", "setting": "ACVR1B", "result": 100, "unit": "%"}, {"measurement": "remaining binding at 1 µM", "setting": "BUB1", "result": 83, "unit": "%"}, {"measurement": "remaining binding at 1 µM", "setting": "PLK3", "result": 100, "unit": "%"}, {"measurement": "remaining binding at 1 µM", "setting": "MLCK", "result": 98, "unit": "%"}, {"measurement": "remaining binding at 1 µM", "setting": "CAMK1G", "result": 84, "unit": "%"}, {"measurement": "remaining binding at 1 µM", "setting": "NEK4", "result": 100, "unit": "%"}, {"measurement": "remaining binding at 1 µM", "setting": "[1]", "result": 73, "unit": "%"}, {"measurement": "remaining binding at 1 µM", "setting": "CHEK1", "result": 100, "unit": "%"}, {"measurement": "remaining binding at 1 µM", "setting": "MAPKAPK2", "result": 99, "unit": "%"}, {"measurement": "remaining binding at 1 µM", "setting": "RIPK2", "result": 100, "unit": "%"}, {"measurement": "remaining binding at 1 µM", "setting": "PIK3CB", "result": 100, "unit": "%"}, {"measurement": "remaining binding at 1 µM", "setting": "[2]", "result": 100, "unit": "%"}, {"measurement": "remaining binding at 1 µM", "setting": "EGFR(S752-I759del)", "result": 58, "unit": "%"}, {"measurement": "remaining binding at 1 µM", "setting": "FGFR1", "result": 88, "unit": "%"}, {"measurement": "remaining binding at 1 µM", "setting": "HCK", "result": 100, "unit": "%"}, {"measurement": "remaining binding at 1 µM", "setting": "PIK3C2G", "result": 95, "unit": "%"}, {"measurement": "remaining binding at 1 µM", "setting": "CSNK1E", "result": 100, "unit": "%"}]}]}
